Like-named read-outs stand apart in the source and are kept apart here. Each block holds one molecule with its values, some of them ahead of it. Numbered stars: 1 amine (or outer) side, 2 acyl side, 3 side chain; on linkers, the order of the positions; unused ones are H or OH. Square brackets hold non-standard residues; d marks the D form. Ends that are not written are not given here. Tyr(Me) = O-methyl-Tyr, COc1ccc(C[C@H](N[*:1])C(=O)[*:2])cc1; Phe(4-NO2) = N[C@@H](Cc1ccc([N+](=O)[O-])cc1)C(=O)O; Bta = N[C@@H](Cc1csc2ccccc12)C(=O)O; Phg = N[C@H](C(=O)O)c1ccccc1
Legend:
[1] = tested on: target cells coated with wild-type peptide; assay: In vivo cytotoxicity against wild-type NY-ESO-1 peptide-coated target cells; parameters: species or system HHD mice; settings: plasmid entrain, peptide amplify; FIGS. 15-16
Experimental: (§1) These cells were then stained with CFSE^hi and CFSE^med fluorescence (4.0 μM or 1 μM, respectively, for 15 minutes) and intravenously co-injected into immunized mice with an equal number of control splenocytes stained with CFSE^lo fluorescence (0.4 μM). Eighteen hours later the specific elimination of target cells was measured by removing the spleens and PBMC from challenged animals and measuring CFSE fluorescence by flow cytometry. The relative depletion of the populations corresponding to peptide loaded splenocytes was calculated relative to the control (unloaded) population and expressed as % specific lysis.

[2] = tested on: native PSMA288-297 peptide; assay: Cross-reactive immunogenicity of PSMA analogs, IFN-gamma ELISPOT; format: in vivo, HHD transgenic mice; settings: peptide plus pI:C intranodal; FIG. 22
Experimental: Groups of HHD transgenic mice (n=8) were immunized with peptide (natural epitope PSMA288-297, or analogs bearing substitutions at primary or secondary anchor residues) by direct inoculation into the inguinal lymph nodes, with 25 μg in 25 μl of PBS+12.5 μg of pI:C to each lymph node at day 0, 3, 14 and 17.
Mice were sacrificed at 10 days after the last boost, and splenocytes prepared and assessed for IFN-γ production by ELISPOT analysis. […] At 48 hours after incubation, the assay was developed and the frequency of cytokine-producing T cells that recognized native PSMA288-297 peptide was automatically counted. The data is represented in FIG. 22 as the number of spot forming colonies/well (mean of triplicates±SD). […] To the extent that the poor immunogenicity of the native epitope reflects tolerance, the improved activity of these analogs represents tolerance breaking.

[3] = tested on: target cells coated with natural peptide; assay: In vivo cytotoxicity against splenocytes coated with natural SSX-2 41-49 peptide (CFSE); parameters: species or system HHD mice; settings: spleen and blood; targets coated with 20 μg/ml and 1 μg/ml natural peptide
Experimental: Eight groups of mice (n=4) were immunized with plasmid expressing SSX-241-49 natural epitope, by direct inoculation into the inguinal lymph nodes with 25 μg in 25 μl of PBS/each lymph node at day 0, 3, 14 and 17. This was followed by two additional peptide boosts (similar amount) at day 28 and 31, using a negative control peptide (Melan A 26-35 “EAA”), natural peptide or analogs as shown in FIG. 9.
as §1, with “To evaluate the in vivo response against natural peptide, splenocytes were isolated from littermate control HHD mice and incubated with 20 μg/mL or 1 μg/ml of natural peptide for 2 hours. These” for “These”, “CFSE^hi” for “CFSE^hi and CFSE^med”, “[…]” for “1 μM, respectively,”, “spleen” for “the spleens”, “lysis. FIG. 10 (spleen) and 11 (blood) show the in vivo cytotoxicity elicited by the regimens described in FIG. 7.” for “lysis.”

[4] = tested on: T cell lines against natural epitope SSX-241-49; assay: Cross-reactivity and functional avidity: IFN-gamma production by T cell lines raised against natural SSX-2 41-49; format: cell-based, HHD transgenic mice; settings: T cells raised to native peptide tested on analogs; footnote * and unit not given;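 further: analogs presented ex vivo by competent APCs to T cells specific for the non-mutated epitope, scored by lowest activating concentration, peak cytokine effect and concentration at that peak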
HLA-A*0201 = HLA-A*0201 (Homo sapiens, UniProt P04439, D140Y/D185E/D98H/E176V/E277Q/G131W/G231S/I119V/I121R/I166T/I218V/L300P/L318F/N151K/N90K/P208A/P217A/Q86G/Q94H/R138H/R169H/T345S); assay: Peptide binding using T2 cells; settings: for Relative affinity (1/RA): half maximal binding of wild-type peptide relative to analog;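 on all read-outs here: Read-out is peptide-induced stabilization of HLA-A*0201 on the cell surface, reflecting mainly Kon at limiting peptide levels and both Kon and Koff at saturating levels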
Source text: Thus, at limiting concentrations of peptide, it is a measurement of Kon mostly and at saturation levels of peptide it is a measurement of both Kon and Koff.
Thus, at limiting concentrations of peptide, this is a measurement of Kon mostly and at saturation levels of peptide that is a measurement of both Kon and Koff.

[5] = tested on: T cells specific for the wild-type NY-ESO-1157-165 epitope; assay: Cross-reactivity and functional avidity of NY-ESO-1 157-165 analogs (IFN-gamma production ex vivo); format: cell-based, HHD transgenic mice; settings: relative to wild-type peptide; FIG. 13
624.38 melanoma cells [6] = assay: Ex vivo cytotoxicity against human tumor cells after boost with SSX-2 analogs; format: in vivo; settings: plasmid prime, peptide boost; FIG. 12
Experimental: Eight groups of mice (n=4) were immunized with plasmid expressing SSX-241-49 natural epitope by direct inoculation into the inguinal lymph nodes with 25 ug in 25 ul of PBS/each lymph node at day 0, 3, 14 and 17. This was followed by two additional peptide boosts (similar amount) at day 28 and 31, using a negative control peptide (Melan A 26-35 “EAA”), natural peptide or analogs as shown in FIG. 9.

splenocytes = assay: Ex vivo IFN-gamma production after re-stimulation with wild-type NY-ESO-1157-165 (ELISA); format: in vivo, mice; settings: 10 μM wild-type peptide, 3 and 6 days; FIG. 17
Source text: Supernatants were harvested and the concentration of IFN-γ measured by ELISA.

LnCap cells = assay: Ex vivo cytotoxicity against PSMA+ A2+ human tumor cells; format: in vivo; settings: splenocytes restimulated ex vivo with native PSMA288-297
Experimental: HHD transgenic mice (n=4) were immunized with PSMA288-297 peptide (25 μg in 25 μl of PBS, plus 12.5 μg of pI:C to each lymph node) at day 0, 3, 14 and 17. One week after the boost, splenocytes were stimulated ex vivo with the native PSMA288-297 peptide and tested against ^51Cr-labeled human tumor cells (PSMA^+ A2^+ LnCap cells, or as negative control, LnCap cells coated with MHC class I-blocking antibody) at various E:T ratios.
HHD transgenic mice (n=4) were immunized with plasmid expressing the PSMA288-297 epitope by direct inoculation into the inguinal lymph nodes with 25 μg in 25 μl of PBS to each lymph node at day 0, 3, 14 and 17. This was followed by two peptide boosts (same amount) at day 28 and 31, with the analog I297V. One week after the boost, splenocytes were stimulated ex vivo with the native PSMA288-297 peptide and tested overnight against ^51Cr-labeled human tumor cells (Lncap, A2^+ PSMA^+; or 624.38 A2^+ PSMA^− or control 624.28 cells A2^− PSMA^−) at various E:T ratios.

624.38 melanoma cells [7] = assay: Ex vivo cytotoxicity against PRAME+ A2+ human tumor cells; format: in vivo; settings: splenocytes restimulated ex vivo with native PRAME peptide
Experimental: This was followed by two peptide boosts (2.5 μg) at day 28 and 31, with the analog L426Nva L433Nle.

HLA-A*0201 on T2 cells [8] = biological target: T1, HLA-A*0201 on T2 cells (human); assay: T2 cells, wild-type/analog half-maximal binding
T1 construct: whole, on cells; Class I MHC on the surface of T2 cells, detected with a fluorescent anti-A2 antibody; beta2-microglobulin is not mentioned for this assay; also called MHC class I (A2 allele)

HLA-A*0201 on T2 cells [9] = biological target: T1, HLA-A*0201 on T2 cells; assay: T2 cells, wild-type/analog half-maximal binding; remark: listed apart in the source
HLA-A*0201 on T2 cells [10] = biological target: T1, HLA-A*0201 on T2 cells; assay: T2 cells, wild-type/analog half-maximal binding; remark: listed apart in the source

Molecule: SLLMWITQC [Nyeso-1 157-165, reference compound]
in vivo cytotoxicity (% specific lysis), in words [1]: variable cytotoxicity

Molecule: GLWSIPVHPI [Peptide P290W]
priming of immune response against native PSMA288-297 (IFN-γ ELISPOT), in words [2]: increased priming

Molecule: S157K L158V C165V: NY-ESO-1 157-165 analog with S157K, L158V and C165V substitutions (KVLMWITQV; UniProt P78358 157-165, looked up, variant S157K L158V C165V)
in vivo cytotoxicity (% specific lysis), in words [1]: effect in the same range with wild-type peptide

Molecule: NY-ESO-1157-166: 10-mer of the wild-type sequence NY-ESO-1 157-166 (SLLMWITQCF; UniProt P78358 157-166, looked up, fragment) [reference compound]
activity in cross-reactivity assay (NY-ESO-1 157-165 specific T cells), in words [5]: no immunological activity

Molecule: CC[C@H](C)[C@H](NC(=O)[C@H](Cc1ccc(O)cc1)NC(=O)[C@H](Cc1ccccc1)NC(=O)[C@@H](NC(=O)[C@H](CCCCN)NC(=O)[C@H](CCC(=O)O)NC(=O)[C@H](CO)NC(=O)[C@@H](NC(=O)[C@@H](N)Cc1ccccc1)C(C)C)[C@@H](C)CC)C(=O)O [SSX2 41-49 (K41F, A42V, V49I)]
cytotoxicity against human tumor cells expressing natural SSX-2 41-49 epitope (624.38 melanoma cells [6]): increased cytotoxicity | Cross-reactivity and fct avidity (native to analogs)* [4]: 0.3 | Relative affinity (1/RA) (HLA-A*0201): 1.6

Molecule: L158V C165V: NY-ESO-1 157-165 analog with L158V and C165V substitutions (SVLMWITQV; UniProt P78358 157-165, looked up, variant L158V C165V)
IFN-gamma production upon ex vivo re-stimulation with wild-type peptide (splenocytes): increased amounts of IFN-gamma | in vivo cytotoxicity (% specific lysis), in words [1]: effect in the same range with wild-type peptide

Molecule: {Abu}LPSIPVHPI (XLPSIPVHPI; Abu at position 288; T cell peptide epitope analog) [Peptide G288Abu, PSMA288-297 analog with G288Abu substitution]
priming of immune response against native PSMA288-297 (IFN-γ ELISPOT), in words [2]: slightly higher (but significant) activity

Molecule: GLPSIPVHPI (T cell peptide epitope analog) [PSMA 288-297, reference compound]
priming of immune response against native PSMA288-297 (IFN-γ ELISPOT), in words [2]: poorly immunogenic | cytotoxicity against LnCap human tumor cells (LnCap cells): able to lyse human tumor cells | binding affinity / binding profile with HLA-A*0201 on T2 cells, in words (HLA-A*0201; compared with wild-type peptide): generally superior binding characteristics

Molecule: S157Y L158I C165V: NY-ESO-1 157-165 analog with S157Y, L158I and C165V substitutions (YILMWITQV; UniProt P78358 157-165, looked up, variant S157Y L158I C165V)
activity in cross-reactivity assay (NY-ESO-1 157-165 specific T cells), in words [5]: increased activity relative to the wild-type peptide

Molecule: L158V: NY-ESO-1 157-165 analog with L158V substitution (SVLMWITQC; UniProt P78358 157-165, looked up, variant L158V) [Peptide L158V]
activity in cross-reactivity assay (NY-ESO-1 157-165 specific T cells), in words [5]: partial retention of activity

Molecule: SLLQHLIGL [PRAME 425-433, reference compound]
cytotoxicity against 624.38 human tumor cells (624.38 melanoma cells [7]): able to lyse human tumor cells

Molecule: S157F L158V C165V: NY-ESO-1 157-165 analog with S157F, L158V and C165V substitutions (FVLMWITQV; UniProt P78358 157-165, looked up, variant S157F L158V C165V)
IFN-gamma production upon ex vivo re-stimulation with wild-type peptide (splenocytes): increased amounts of IFN-gamma

B5: SSX2 41-49 (K41Y, A42M) (peptide)
peptide: YMSEKIFYV
Relative affinity (1/RA) (HLA-A*0201 on T2 cells [9]): 0.6 1/RA

The next lines start with results.

Relative affinity (1/RA) (HLA-A*0201): 1.7
Molecule: YASEKIFYV-OH [SSX2 41-49 (K41Y)]
in vivo cytotoxicity (% specific lysis), in words [3]: increased activity | Cross-reactivity and fct avidity (native to analogs)* [4]: 3

Relative affinity (1/RA) (HLA-A*0201): 1.5
Molecule: FASEKIFYV [SSX2 41-49 (K41F)]
in vivo cytotoxicity (% specific lysis), in words [3]: increased activity | Cross-reactivity and fct avidity (native to analogs)* [4]: 0.3

Relative affinity (1/RA) (HLA-A*0201 on T2 cells [8]): 1.7 1/RA
B1: SSX2 41-49 (A42I) (peptide)
peptide: KISEKIFYV

Relative affinity (1/RA) (HLA-A*0201 on T2 cells [9]): 1.2 1/RA
B2: SSX2 41-49 (K41Y, A42L) (peptide)
peptide: YLSEKIFYV

Relative affinity (1/RA) (HLA-A*0201 on T2 cells [9]): 3 1/RA
B3: SSX2 41-49 (K41W, A42V) (peptide)
peptide: WVSEKIFYV

Relative affinity (1/RA) (HLA-A*0201 on T2 cells [8]): 1.7 1/RA
B4: SSX2 41-49 (A42M) (peptide)
peptide: KMSEKIFYV

Relative affinity (1/RA) (HLA-A*0201 on T2 cells [10]): 1.5 1/RA
B6: SSX2 41-49 (K41F) (peptide)
peptide: FASEKIFYV

Relative affinity (1/RA) (HLA-A*0201 on T2 cells [10]): 1.7 1/RA
B7: SSX2 41-49 (K41Y) (peptide)
peptide: YASEKIFYV

Relative affinity (1/RA) (HLA-A*0201 on T2 cells [10]): 1.1 1/RA
B8: SSX2 41-49 (K41(Phe-4NO2)) (peptide)
peptide: [Phe(4-NO2)]ASEKIFYV
notes: also called para-nitrophenylalanine analog

Relative affinity (1/RA) (HLA-A*0201 on T2 cells [10]): 0.6 1/RA
B9: SSX2 41-49 (K41(b-(3-benzothienyl)Ala)) (peptide)
peptide: [Bta]ASEKIFYV

Relative affinity (1/RA) (HLA-A*0201 on T2 cells [10]): 0.8 1/RA
B10: SSX2 41-49 (K41(O-methyl Tyr)) (peptide)
peptide: [Tyr(Me)]ASEKIFYV

Relative affinity (1/RA) (HLA-A*0201 on T2 cells [10]): 2.5 1/RA
B11: SSX2 41-49 (K41(Phg)) (peptide)
peptide: [Phg]ASEKIFYV
